Assay results published in patent publication US5486511A, “4-amino-17β-(cyclopropyloxy)androst-4-en-3-one, 4-amino-17β-(cyclopropylamino)androst-4-en-3-one and related compounds as C17-20 lyase and 5α-reductase” (Merrell Dow Pharmaceuticals Inc., priority 1994, dated 1996).

Key:
canine lyase = assay: Inhibition of canine steroid C17,20 lyase (testicular microsomes); format: biochemical, dog; conditions: canine; 1 μM; preincubation 40 min
Description: (§1) The activity of the present compounds as inhibitors of steroid C17,20 lyase was established using microsomal preparations of the steroid C17,20 lyase enzyme from human or laboratory animal testes. Human testes used for this purpose were obtained from therapeutic orchiectomies. Specifically, microsomes were isolated from human, cynomolgus monkey, dog, rat or athymic nude mouse testicular tissue. The compound to be tested was dissolved in dimethyl sulfoxide and diluted in 0.05M potassium phosphate buffer to give the desired concentrations of the test compound. The potassium phosphate buffer was at pH 7.4 for the human, monkey and dog lyase assays and at pH 7.2 for the rat and athymic nude mouse lyase assays. Assays also contained 1 mM NADPH, 5 mM glucose-6-phosphate, 1 IU/ml glucose-6-phosphate dehydrogenase (an NADPH regenerating system) and microsomal protein in a total volume of 0.2 mL. Control assays contained all components including dimethyl sulfoxide, but with no test compound. All assays were performed in duplicate. […] Radioactivity in the steroid peaks was measured by a Radiomatic Model HS Flo-One detector.
(§2) The enzyme activity for each incubate was calculated from the percent conversion of substrate to products, and the results were expressed as percent inhibition of control. […] The Ki and kinact for time dependent inhibitors were determined by graphical analysis of Kitz-Wilson plots. […]

rat lyase = assay: Inhibition of rat steroid C17,20 lyase (testicular microsomes); format: biochemical; conditions: rat; 0.1 μM; preincubation 40 min
Description: as §1, §2

[1] = target: T1, cynomolgus monkey 5α-reductase (Macaca fascicularis, UniProt Q28892); assay: Inhibition of cynomolgus monkey prostatic 5α-reductase (prostate microsomes); format: biochemical; conditions: for IC50: testosterone at Km level
T1 construct: microsomes were isolated from cynomolgus monkey prostate tissue; from tissue; host or cells: cynomolgus monkey prostate microsomes
T1 sequence (Q28892 1-254): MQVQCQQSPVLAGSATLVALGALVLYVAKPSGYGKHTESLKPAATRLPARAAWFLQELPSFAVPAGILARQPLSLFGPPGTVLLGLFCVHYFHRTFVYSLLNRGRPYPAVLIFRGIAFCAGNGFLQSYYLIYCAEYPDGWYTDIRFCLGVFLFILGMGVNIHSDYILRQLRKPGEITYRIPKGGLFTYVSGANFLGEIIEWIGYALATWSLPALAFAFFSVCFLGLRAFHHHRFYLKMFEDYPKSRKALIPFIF
Description: The activity of the present compounds as inhibitors of steroid 5α-reductase was determined using microsomal preparations of the 5α-reductase enzyme from laboratory prostate tissue. Specifically, microsomes were isolated from cynomolgus monkey prostate tissue. Protein concentration of the microsomal preparations was determined prior to use of the samples. Individual assays of cynomolgus monkey prostatic 5α-reductase activity contained 0.1M potassium phosphate-sodium citrate buffer (K-Na buffer, 1:1), pH 5.6, 0.1% bovine serum albumin (w/v), 1.0 mM sodium EDTA, 7 to 96 μg of microsomal protein, 1.0 mM NADPH, 5.0 mM glucose-6-phosphate, 1 IU/mL glucose-6 -phosphate dehydrogenase, [1,2-^3 H]-testosterone (0.15 μCi), unlabeled testosterone to yield the desired concentration of substrate, and inhibitor which was dissolved in dimethyl sulfoxide (DMSO) then diluted in K-Na buffer to yield a final assay concentration of 0.1% (v/v) DMSO. The same buffer and DMSO without inhibitor were used in control assays. Background radioactivity was determined from assays containing all components except enzyme. Assays were performed in duplicate. The reaction was initiated by the addition of testosterone and incubated for 20 minutes at 25° C. in a Dubnoff® shaker incubator. Compound to be tested for inhibition was added simultaneously with testosterone. The total volume of the assay was 100 μL.
The 5α-reductase reactions were terminated by the addition of 5 mL chloroform-methanol (2:1) and 0.9 mL water. The carrier steroids were added in the form of 2.5 μg each of testosterone, dihydrotestosterone, and 3,17-androstanediol. […]

Compound | % Inhibition (canine lyase) | % Inhibition (rat lyase) | Ki ([1]; testosterone 0.5 Km to 8 Km) | IC50 [1]
C[C@]12CC[C@H]3[C@@H](CCC4=C(N)C(=O)CC[C@@]43C)[C@@H]1CC[C@@H]2OC1CC1 [Compound 2, 4-Amino-17β-(cyclopropyloxy)androst-4-en-3-one] | 57% | 70% | 7.8 ± 0.7 nM | 7.4 nM
C[C@]12CC[C@H]3[C@@H](C=CC4=C(N)C(=O)CC[C@@]43C)[C@@H]1CC[C@@H]2OC1CC1 [Compound 1, 4-Amino-17β-(cyclopropyloxy)androsta-4,6-dien-3-one] |  |  |  | 2.8 nM
